Reference: PubChem BioAssay AID2060509 (Molecular Pharmacology Branch, DTP, NCI, 2025)
pIC50: −log10 of the molar value.

Test system: 485176-168-R4-J1-PDC spheroids with HUVEC/MSC, viability
Assay: Anticancer human tumor 485176-168-R4-J1-PDC patient-derived pancreatic adenocarcinoma cell line growth inhibition [GQUAD]
Conditions: for pIC50: curve of first compound; for viability, T/C: stronger effect = lower value; active = viability on the fitted dose curve at most 10% of control; inactive = the rest
Summary of the method: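 Multi-cell-type spheroids of tumor cells with HUVEC and mesenchymal stem cells, treated with drug combinations. Concentrations descend in half-log steps from near clinical Cmax, or from 10 microM where Cmax is unknown; viability read-out.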
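Also: spheroids exposed to compounds for seven days before readout.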
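For viability, T/C in this document: percent viability relative to DMSO vehicle control wells as 100%.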

CC[C@@]1(O)C(=O)OCc2c1cc1n(c2=O)Cc2cc3c(CN(C)C)c(O)ccc3nc2-1 + Cc1cnc(CNC(=O)c2c(=O)c3ccc(N4CCCN(C)CC4)nc3n3c2sc2ccccc23)cn1
7.23: pIC50 (second compound 0.1 µM)
7.96: pIC50 (second compound 1 µM)
7.36: pIC50 (second compound 0.316 µM)
> 9.00: pIC50 (second compound 10 µM)
6.95: pIC50 (second compound 0.0316 µM)
inactive: viability, T/C (second compound 0.0316 µM, first compound 0.000999 µM) 94.4% | viability, T/C (second compound 0.0316 µM, first compound 0.00316 µM) 84.9% | viability, T/C (second compound 0.0316 µM, first compound 0.00999 µM) 87.5% | viability, T/C (second compound 0.0316 µM, first compound 0.0316 µM) 70.3% | viability, T/C (second compound 0.0316 µM, first compound 0.0999 µM) 52.8% | viability, T/C (second compound 0.0316 µM, first compound 0.316 µM) 29.3% | viability, T/C (second compound 0.1 µM, first compound 0.000999 µM) 75.8% | viability, T/C (second compound 0.1 µM, first compound 0.00316 µM) 72.1% | viability, T/C (second compound 0.1 µM, first compound 0.00999 µM) 88.9% | viability, T/C (second compound 0.1 µM, first compound 0.0316 µM) 60.9% | viability, T/C (second compound 0.1 µM, first compound 0.0999 µM) 44.8% | viability, T/C (second compound 0.1 µM, first compound 0.316 µM) 37.1% | viability, T/C (second compound 0.316 µM, first compound 0.000999 µM) 69.3% | viability, T/C (second compound 0.316 µM, first compound 0.00316 µM) 62.8% | viability, T/C (second compound 0.316 µM, first compound 0.00999 µM) 64% | viability, T/C (second compound 0.316 µM, first compound 0.0316 µM) 52.4% | viability, T/C (second compound 0.316 µM, first compound 0.0999 µM) 41.8% | viability, T/C (second compound 0.316 µM, first compound 0.316 µM) 32.2% | viability, T/C (second compound 1 µM, first compound 0.000999 µM) 47.8% | viability, T/C (second compound 1 µM, first compound 0.00316 µM) 55.1% | viability, T/C (second compound 1 µM, first compound 0.00999 µM) 50.9% | viability, T/C (second compound 1 µM, first compound 0.0316 µM) 42.4% | viability, T/C (second compound 1 µM, first compound 0.0999 µM) 35.9% | viability, T/C (second compound 1 µM, first compound 0.316 µM) 33.5% | viability, T/C (second compound 3.16 µM, first compound 0.000999 µM) 49.5% | viability, T/C (second compound 3.16 µM, first compound 0.00316 µM) 49.4% | viability, T/C (second compound 3.16 µM, first compound 0.00999 µM) 39.8% | viability, T/C (second compound 3.16 µM, first compound 0.0316 µM) 41.2% | viability, T/C (second compound 3.16 µM, first compound 0.0999 µM) 34.4% | viability, T/C (second compound 3.16 µM, first compound 0.316 µM) 30.8% | viability, T/C (second compound 10 µM, first compound 0.000999 µM) 42.7% | viability, T/C (second compound 10 µM, first compound 0.00316 µM) 44.5% | viability, T/C (second compound 10 µM, first compound 0.00999 µM) 41.3% | viability, T/C (second compound 10 µM, first compound 0.0316 µM) 36.4% | viability, T/C (second compound 10 µM, first compound 0.0999 µM) 36.3% | viability, T/C (second compound 10 µM, first compound 0.316 µM) 27.5%
8.93: pIC50 (second compound 3.16 µM)
